Laboratory results published in ChEMBL document CHEMBL5512597, “Triazole hybrid compounds: A new frontier in malaria treatment” (Eur J Med Chem, 2023).
Values after ≈ are worked out from the molar mass of the structure shown.

Assays:
[1] = test system: Plasmodium falciparum; experiment: Antimalarial activity against CQ-resistant Plasmodium falciparum K1; assay type: functional, organism-based
[2] = test system: Plasmodium falciparum; experiment: Antimalarial activity against Plasmodium falciparum; assay type: functional, organism-based
[3] = test system: Plasmodium falciparum; experiment: Antiplasmodial activity against CQ-sensitive Plasmodium falciparum NF54; assay type: functional, organism-based
[4] = test system: Plasmodium falciparum; experiment: Antimalarial activity against Plasmodium falciparum 3D7 at asexual erythrocytic stage assessed as parasite growth inhibition measured after 24 hrs by [3H]-hypoxanthine incorporation assay; assay type: functional, organism-based
[5] = test system: Plasmodium falciparum; experiment: Antimalarial activity against Plasmodium falciparum assessed as parasite growth inhibition incubated for 36 to 40 hrs by JSB staining based analysis; assay type: functional, organism-based
[6] = test system: Plasmodium falciparum; experiment: Antimalarial activity against Plasmodium falciparum 3D7 infected in A+ human erythrocytes assessed as reduction in parasite growth incubated for 72 hrs by SYBR Green I staining based analysis; assay type: functional, organism-based; settings: 3D7, Erythrocyte
[7] = test system: Plasmodium falciparum; experiment: Antimalarial activity against Plasmodium falciparum Dd2 infected in A+ human erythrocytes assessed as reduction in parasite growth incubated for 72 hrs by SYBR Green I staining based analysis; assay type: functional, organism-based; settings: Dd2, Erythrocyte
[8] = test system: Plasmodium falciparum; experiment: Antimalarial activity against Plasmodium falciparum K1 infected in A+ human erythrocytes assessed as reduction in parasite growth incubated for 72 hrs by SYBR Green I staining based analysis; assay type: functional, organism-based; settings: K1, Erythrocyte
[9] = test system: Plasmodium falciparum; experiment: Antimalarial activity against CQ-resistant Plasmodium falciparum Dd2; assay type: functional, organism-based
[10] = Cytotoxicity against human erythrocytes; assay type: toxicity, cell-based, Erythrocyte

For `C=CCn1cc(COc2ccc([C@@H]3[C@H](Oc4ccccc4)C(=O)N3c3ccccc3)cc2)nn1`, the IC50 [1] was 6.19 µM.

With `CC1=C(C(=O)Nc2ccc(Cl)cc2)C(c2ccc(OCc3cn(Cc4ccccc4)nn3)cc2)n2c(nc3ccccc32)N1` (stereo not drawn) the IC50 [2] was 1690 nM.

Molecule `O=C1c2ccccc2C(=O)N1[C@H]1C(=O)N(c2ccc(OCc3cn(Cc4ccccc4)nn3)cc2)[C@@H]1c1ccc(OCc2cn(Cc3ccccc3)nn2)cc1` has an IC50 [1] of 1.81 µM.

In the case of `Clc1ccc2c(-n3cc(-c4ccccn4)nn3)ccnc2c1`, the IC50 [3] is reported as 28 µM.

Work on `CC1=C(C(=O)Nc2ccc(F)cc2)C(c2ccc(OCc3cn(Cc4ccccc4)nn3)cc2)n2ncnc2N1` (stereo not drawn) yielded an IC50 [2] of 4360 nM.

`Cc1cc(C)nc(NS(=O)(=O)c2ccc(-n3cc(COc4cc(=O)oc5ccccc45)nn3)cc2)n1` showed an IC50 [4] of over 79.4 µM.

`CC1=C(C(=O)Nc2ccccc2C)C(c2ccc(OCc3cn(Cc4ccccc4)nn3)cc2)n2ncnc2N1` (stereo not drawn) showed an IC50 [2] of 1860 nM.

For `O=c1ccc2ccc(OCc3cn(-c4ccc(OCc5ccc([N+](=O)[O-])cc5)cc4)nn3)cc2o1`, the IC50 [5] was 1.2 µg/mL (≈ 2.55 µM).

`O=c1cc(OCc2cn(-c3ccc(S(=O)(=O)N4CCOCC4)cc3)nn2)c2ccccc2o1` gave an IC50 [4] of 34.2 µM.

In the case of `C[C@H]1[C@@H](OCCc2cn(-c3ccnc4cc(Cl)ccc34)nn2)O[C@@H]2O[C@@]3(C)CC[C@H]4[C@H](C)CC[C@@H]1[C@@]24OO3`, the EC50 [6] is reported as 8.8 nM, the EC50 [7] is reported as 4.5 nM and the EC50 [8] is reported as 2 nM.

For `C=CCn1cc(COc2ccc([C@@H]3[C@H](Oc4ccccc4)C(=O)N3c3ccc(C)cc3)cc2)nn1`, the IC50 [1] was 8.43 µM.

In the case of `Cc1c(-c2ccccc2)c2ccc(OCc3cn(-c4ccc(S(N)(=O)=O)cc4)nn3)cc2oc1=O`, the IC50 [4] is reported as 3.68 µM.

Work on `C[C@H]1[C@H](OC(=O)CCC(=O)OCCCCc2cn(-c3ccnc4cc(Cl)ccc34)nn2)O[C@@H]2O[C@@]3(C)CC[C@H]4[C@H](C)CC[C@@H]1[C@@]24OO3` yielded an EC50 [6] of 6.2 nM, an EC50 [7] of 4.4 nM and an EC50 [8] of 2.5 nM.

Work on `Cc1cc(=O)oc2cc(OCc3cn(-c4ccc(S(=O)(=O)N5CCOCC5)cc4)nn3)c(Cl)cc12` yielded an IC50 [4] of 50.4 µM.

With `NS(=O)(=O)c1ccc(-n2cc(COc3cc(=O)oc4ccccc34)nn2)cc1` the IC50 [4] was 100 µM.

In the case of `Cc1nc(-c2ccccc2)c(-c2ccccc2)c2cc(-c3cn(CCOC(=O)CCC(=O)O[C@@H]4O[C@@H]5O[C@]6(C)O[C@]57[C@@H](CC[C@@H](C)[C@@H]7C[C@H]6O)[C@H]4C)nn3)ccc12`, the EC50 [6] is reported as 646 nM, the EC50 [7] is reported as 444 nM and the EC50 [8] is reported as 256 nM.

For `O=c1ccc2ccc(OCc3cn(-c4ccc(OCc5ccc(Br)cc5)cc4)nn3)cc2o1`, the IC50 [5] was 0.54 µg/mL (≈ 1.07 µM).

`Cc1nc(-c2ccccc2)c(-c2ccccc2)c2cc(-c3cn(CCOC(=O)CCC(=O)O[C@@H]4O[C@@H]5O[C@@]6(C)CC[C@H]7[C@H](C)CC[C@@H]([C@H]4C)[C@@]57OO6)nn3)ccc12` showed an EC50 [6] of 5.3 nM, an EC50 [7] of 4.8 nM and an EC50 [8] of 3.3 nM.

With `Cc1ccc(N2C(=O)[C@@H](Oc3ccccc3)[C@H]2c2ccc(OCc3cn(Cc4ccccc4)nn3)cc2)cc1` the IC50 [1] was 15.5 µM.

With `CC1=C(C(=O)Nc2ccc(C)cc2)C(c2ccc(OCc3cn(Cc4ccccc4)nn3)cc2)n2ncnc2N1` (stereo not drawn) the IC50 [2] was 1840 nM.

With `Br.O=[N+]([O-])c1ccc(Cn2cc(-c3ccccc3C[P+](c3ccccc3)(c3ccccc3)c3ccccc3)nn2)cc1` the IC50 [9] was over 100 µg/mL and the CC50 [10] was over 100 µg/mL.

With `CC1=C(C(=O)Nc2cccc(Cl)c2)C(c2ccc(OCc3cn(Cc4ccccc4)nn3)cc2)n2ncnc2N1` (stereo not drawn) the IC50 [2] was 2240 nM.

`O=[N+]([O-])c1ccccc1Cn1cc(CO)nn1` gave an IC50 [9] of 0.65 µg/mL (≈ 2.78 µM) and a CC50 [10] of 75.5 µg/mL (≈ 322 µM).

`CC1=C(C(=O)Nc2ccccc2C)C(c2ccc(OCc3cn(Cc4ccccc4)nn3)cc2)n2c(nc3ccccc32)N1` (stereo not drawn) gave an IC50 [2] of 1530 nM.

`COc1ccc(N2C(=O)[C@@H](Oc3ccccc3)[C@H]2c2ccc(OCc3cn(Cc4ccccc4)nn3)cc2)cc1OC` gave an IC50 [1] of 5.14 µM.

With `CC1=C(C(=O)Nc2ccc(F)cc2)C(c2ccc(OCc3cn(Cc4ccccc4)nn3)cc2)n2c(nc3ccccc32)N1` (stereo not drawn) the IC50 [2] was 990 nM.

`O=[N+]([O-])c1ccc(Cn2cc(CO)nn2)cc1` showed an IC50 [9] of 0.62 µg/mL (≈ 2.65 µM) and a CC50 [10] of over 100 µg/mL.

For `C[C@H]1[C@@H](OCCCCc2cn(-c3ccnc4cc(Cl)ccc34)nn2)O[C@@H]2O[C@@]3(C)CC[C@H]4[C@H](C)CC[C@@H]1[C@@]24OO3`, the EC50 [6] was 8.4 nM, the EC50 [7] was 6.1 nM and the EC50 [8] was 3.7 nM.

For `O=C1[C@@H](Oc2ccccc2)[C@@H](c2ccc(OCc3cn(Cc4ccccc4)nn3)cc2)N1c1ccc(OCc2cn(Cc3ccccc3)nn2)cc1`, the IC50 [1] was under 0.97 µM.

Work on `C[C@H]1[C@H](OC(=O)CCC(=O)OCCCc2cn(-c3ccnc4cc(Cl)ccc34)nn2)O[C@@H]2O[C@@]3(C)CC[C@H]4[C@H](C)CC[C@@H]1[C@@]24OO3` yielded an EC50 [6] of 5.4 nM, an EC50 [7] of 4.6 nM and an EC50 [8] of 2.4 nM.

In the case of `Cc1ccc(COc2ccc(-n3cc(COc4ccc5ccc(=O)oc5c4)nn3)cc2)cc1`, the IC50 [5] is reported as 0.38 µg/mL (≈ 0.865 µM).

With `C[C@H]1[C@H](OC(=O)CCC(=O)O)O[C@@H]2O[C@@]3(C)CC[C@H]4[C@H](C)CC[C@@H]1[C@@]24OO3` [ARTESUNATE] the EC50 [6] was 14.4 nM, the EC50 [7] was 10.9 nM and the EC50 [8] was 5.2 nM. The IC50 [9] was 0.002 µg/mL (≈ 0.0052 µM) and the CC50 [10] was over 100 µg/mL.

Molecule `C=C[C@H]1CN2CC[C@H]1C[C@H]2[C@H](O)c1ccnc2ccc(OC)cc12` [QUININE] has an IC50 [5] of 0.268 µg/mL (≈ 0.826 µM) and an IC50 [2] of 83 nM.
